Source: US11793746B2, “Intense skin hydration systems and methods” (priority 2020, dated 2023)

How the values were obtained:
[1] = system: PGE2 synthesis by 3T3 fibroblasts; assay: Inhibition of PGE2 synthesis by 3T3 fibroblasts (ELISA); type: cell-based; conditions: for [PGE2]: 24 h
Text: This Example establishes the anti-inflammatory potential of GC-100 by measuring the inhibition of PGE2 synthesis by 3T3 fibroblasts in cell culture.
The cells are nourished in a medium enriched with arachidonic acid which leads to increased secretion of eicosanoids into the medium.
The formation of prostaglandin PGE2 will be followed as a marker of eicosanoid synthesis, because it is a stable molecule secreted preferentially by 3T3 fibroblasts. The anti-inflammatory potential of an active ingredient may then be investigated by following the decrease in secretion of PGE2 in the culture medium.
Quantification of PGE2 will be achieved using an enzyme-linked immunosorbant assay (ELISA). In principle, the PGE2 expressed by the cells in culture medium will compete with enzyme-linked PGE2 for available antibody, which is a constant. The concentration of enzyme-linked PGE2 is also constant and quantified prior to testing. The enzyme linked to PGE2 prior to testing is acetylcholinesterase. Since the quantity of PGE2 expressed by 3T3 cells in culture will vary based on the concentration of GC-100 present, the amount of antibody available to bind to the enzyme-linked PGE2 versus that produced by the 3T3 cells assumes an inverse relationship that is dependent on Brownian motion. After eliminating unreacted PGE2 through washing, substrate is added that binds to the enzyme-PGE2-antibody complex to generate a yellow color that is strongly evident using spectrophotometer set at 412 nm. The amount of light transmitted through the test sample is directly proportional to the intensity of the color change and, consequently, to the concentration of PGE2-enzyme-antibody complex.
Create a mother solution (solution #1) containing complete DMEM, alcohol, and 2×10^5 3T3 fibroblasts for plating onto 25 cm^2 culture dishes. Using a compounding dilution technique, prepare the following solutions, using 5 mL of media per plate: • Solution #2: Solution #1 plus arachidonic acid (10^−3% P/V) • Solution #3: Solution #2 plus indomethacin (0,1,10^−3% P/V) • Solution #4: Solution #2 plus GC-100 0.5% • Solution #5: Solution #2 plus GC-100 1.0%
Incubate all preparations for 24 hours at 37° C. Recover the supernatant media, and if needed deep freeze it at −20° C. before quantification. Count the number of surviving cells using a coulter counter. Establish a calibration curve of the quantity of PGE2. Quantify the supernatant media using an enzyme-linked immunosorbant assay kit specific for PGE2 (Cayman), using a Dynotech microplate reader (MR500) with a filter set at 412 nm. Calculate the % inhibition of PGE2 synthesis. The results are shown in Table 4 and FIG. 10, which is a graph showing mean suppression of PGE2 concentration in test media comprising indomethacin or GC-100.

[2] = system: collagen I and III synthesis; assay: [3H]-Proline incorporation as measure of collagen deposition; type: cell-based, human
Text: This human skin substrate consists of neonatal foreskin fibroblasts that secrete a functionally active extracellular matrix grown on a medical-grade nylon mesh cocultured with human neonatal foreskin keratinocytes that differentiate into a multilayered epidermis.
Quantifying proline incorporation can be used to measure potential collagen deposition stimulated by a test substance. This concept is the foundation for the following experiments.

[3] = DMEM + AA + Indomethacin, column A
[4] = DMEM + AA + Indomethacin, column B
[5] = DMEM + AA + Indomethacin, column C

COc1ccc2c(c1)c(CC(=O)O)c(C)n2C(=O)c1ccc(Cl)cc1 [Indomethacin, indomethacin, reference compound]
% change of PGE2 vs DMEM + AA, MEAN ([1]; DMEM + AA + Indomethacin): −87.2% | % change of PGE2 vs DMEM + AA [1, 3]: −91% | [PGE2] [1, 3]: 0.27 pg/mL | % change of PGE2 vs DMEM + AA [1, 4]: −88% | [PGE2] [1, 4]: 0.35 pg/mL | % change of PGE2 vs DMEM + AA [1, 5]: −82.6% | [PGE2] [1, 5]: 0.50 pg/mL | suppression of PGE2 expression ([1]; indomethacin): 87%

O=C1O[C@H]([C@@H](O)CO)C(O)=C1O [ascorbic acid]
influence of ascorbic acid on proline incorporation ([2]; higher than optimal concentrations of ascorbic acid): suppress proline incorporation

ClCc1ccccc1 [benzyl chloride]
proline incorporation relative to control levels [2]: suppress proline incorporation below control levels
